This note sets out measurements from article PMC11335392, “Characterization of an Estrogen Receptor α-Selective ^18 F-Estradiol PET Tracer” (World Journal of Nuclear Medicine, 2024).

A word on the Kd: it is the free concentration of one partner at which half of the binding sites on the other are occupied at equilibrium, for simple one-to-one binding. Read a low Kd as tighter binding.

The target in the experiment is T1, estrogen receptor α (ERα) (Homo sapiens, UniProt P03372).
T1 construct: gene ESR1; full-length human ESR1 (ERα), transiently expressed in HEK293T cells
T1 sequence (P03372 1-595): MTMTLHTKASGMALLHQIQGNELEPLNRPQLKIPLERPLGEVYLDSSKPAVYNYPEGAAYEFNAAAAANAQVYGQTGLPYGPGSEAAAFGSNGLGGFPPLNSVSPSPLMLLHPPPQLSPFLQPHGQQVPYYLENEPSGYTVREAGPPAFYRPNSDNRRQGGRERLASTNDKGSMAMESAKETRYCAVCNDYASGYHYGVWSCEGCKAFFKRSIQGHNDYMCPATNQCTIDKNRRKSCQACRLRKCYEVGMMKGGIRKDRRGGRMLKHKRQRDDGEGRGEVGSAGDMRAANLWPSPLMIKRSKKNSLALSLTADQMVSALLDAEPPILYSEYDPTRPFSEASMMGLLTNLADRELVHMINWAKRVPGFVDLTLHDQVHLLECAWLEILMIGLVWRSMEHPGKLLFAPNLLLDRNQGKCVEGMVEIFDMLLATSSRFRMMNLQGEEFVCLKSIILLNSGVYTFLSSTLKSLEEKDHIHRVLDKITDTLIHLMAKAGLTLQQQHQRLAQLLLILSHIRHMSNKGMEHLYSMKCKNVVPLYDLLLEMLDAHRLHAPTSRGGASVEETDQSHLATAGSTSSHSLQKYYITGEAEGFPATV
In words: radioligand saturation binding with Scatchard analysis in ERα-transfected HEK293T cells. It is filed as cell-based.

The compound `C[C@]12CC[C@@H]3c4ccc(O)cc4CC[C@H]3[C@@H]1C[C@@H](F)[C@@H]2O` [[18F]FES, 16α-[18F]fluoro-17β-estradiol] gave a Kd of 94 nM.
